Results on one compound are retold here after PubChem BioAssay AID588341 (The Scripps Research Institute Molecular Screening Center, 2011).

The source made the active and inactive calls. No rule for the calls is given here.

The target of this assay is Beta-lactamase (reporter enzyme, TEM-1 type bla) (UniProt Q932Y6). The experiment in a line: beta-lactamase reporter inhibitor potency, dose response, artefact control for TLR9-MyD88 binding inhibitor project, BLA reporter cells, FRET fluorescence (AID 588341). The following applies: BLA reporter cell line, FRET fluorescence inhibition.
Sequence of Beta-lactamase (reporter enzyme, TEM-1 type bla) (Q932Y6 1-286): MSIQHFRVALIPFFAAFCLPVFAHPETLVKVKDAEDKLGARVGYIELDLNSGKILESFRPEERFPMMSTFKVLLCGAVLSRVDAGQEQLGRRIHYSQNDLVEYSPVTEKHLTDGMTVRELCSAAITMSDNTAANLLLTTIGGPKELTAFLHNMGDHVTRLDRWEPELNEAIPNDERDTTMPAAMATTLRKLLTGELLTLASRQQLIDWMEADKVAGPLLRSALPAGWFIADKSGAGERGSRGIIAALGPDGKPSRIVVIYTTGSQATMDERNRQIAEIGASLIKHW

For the compound `COc1cc(/C=C/C(=O)/C=C(O)/C=C/c2ccc(O)c(OC)c2)ccc1O`, the IC50 entry was “inactive”.
